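Test compounds were applied to cells in 96-well plates for 48 hours at 5 doses. GI50: concentration for 50% inhibition of growth.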 Active and inactive are the calls of the source. Rule as the data show it: active = GI50 up to about 1.1 µM and inactive = higher.
Tests used:
Test in all cases: NCI-60 cell line screen, 48 h
DMS-273 = system: DMS-273
HOP-18 = system: HOP-18
M19-MEL = system: M19-MEL
RXF 631 = system: RXF 631
SNB-78 = system: SNB-78
XF498 = system: XF498

Measured: GI50

COC(=O)C(Br)C1CCc2ccccc21 (centres undefined)
inactive: DMS-273 > 100 µM | HOP-18 65.3 µM | M19-MEL > 100 µM | RXF 631 > 100 µM

CC(=O)c1ccccc1NC(=O)C(=O)C(C(=O)c1ccccc1-c1ccccc1)C1OC(=O)c2ccccc21 (centres undefined)
inactive: DMS-273 31.9 µM | HOP-18 15.2 µM | M19-MEL 17.2 µM | RXF 631 50.6 µM | SNB-78 30.4 µM | XF498 11.3 µM

N#CCC(=O)Nc1cccc(C(F)(F)F)c1
inactive: DMS-273 > 100 µM | HOP-18 29.2 µM | M19-MEL > 100 µM | RXF 631 > 100 µM | SNB-78 > 100 µM | XF498 > 100 µM

COC(=O)C1CCc2nnc(-c3cccnc3)n21 (centres undefined)
inactive: DMS-273 > 100 µM | HOP-18 > 100 µM | M19-MEL > 100 µM | RXF 631 > 100 µM | SNB-78 > 100 µM

CC(C)C1=CC(=O)C(C)(C2=NC(C)(C)CO2)c2ccccc21 (centres undefined)
inactive: DMS-273 > 100 µM | HOP-18 34.6 µM | M19-MEL > 100 µM | RXF 631 95.7 µM | XF498 > 100 µM

C#C[C@@H](CCCC)OC(=O)N[C@H](C)c1ccccc1
inactive: DMS-273 37.2 µM | HOP-18 > 100 µM | M19-MEL 38.5 µM | RXF 631 45.6 µM | SNB-78 94.6 µM | XF498 66.8 µM

CCCCCCCCCCCCCC(=O)NCO
inactive: HOP-18 > 100 µM | M19-MEL > 100 µM | RXF 631 > 100 µM | SNB-78 > 100 µM | XF498 > 100 µM

Cc1c(Cl)ccc2c1NC(=O)C2(O)C(C(=O)c1ccccc1)c1ccccc1 (centres undefined)
inactive: DMS-273 51.5 µM | HOP-18 52.4 µM | M19-MEL 14.7 µM | RXF 631 62.2 µM | SNB-78 > 100 µM | XF498 32.7 µM

COc1ccc(N2C(=O)C3c4[nH]c5ccccc5c4C4CC(C)(C)CC(C)(C)C4C3C2=O)cc1 (centres undefined)
inactive: DMS-273 11 µM | HOP-18 16.7 µM | M19-MEL 15.1 µM | SNB-78 21.4 µM | XF498 17.6 µM

CCCCCCCCCCCCCC(=O)OCC(C[As](=O)(O)O)OC(=O)CCCCCCCCCCCCC (centres undefined)
inactive: DMS-273 > 100 µM | HOP-18 > 100 µM | RXF 631 > 100 µM | SNB-78 > 100 µM | XF498 > 100 µM

CCOC(=O)/N=c1/nc(N(C)C)ss1
inactive: DMS-273 > 100 µM | HOP-18 > 100 µM | RXF 631 > 100 µM | SNB-78 > 100 µM | XF498 > 100 µM

CC(=O)NNc1nc(C)c(C(=O)/C=C/c2ccc(/C=C/C(=O)c3sc(NNC(C)=O)nc3C)cc2)s1
inactive: DMS-273 > 100 µM | M19-MEL > 100 µM | RXF 631 > 100 µM | SNB-78 > 100 µM | XF498 > 100 µM

O=C1C=C(Nc2ccc(Cl)cc2Cl)c2ccccc2C1=O
inactive: DMS-273 27.4 µM | M19-MEL 13.5 µM | RXF 631 34.5 µM | SNB-78 44.1 µM

O=C1/C(=C/c2ccc(Cl)cc2)COc2ccc(Br)cc21
inactive: DMS-273 > 100 µM | HOP-18 11.6 µM | M19-MEL > 100 µM | RXF 631 > 100 µM | SNB-78 > 100 µM | XF498 69 µM

CC(C)C(=O)NC(=S)Nc1ccc([N+](=O)[O-])cc1C#N
inactive: DMS-273 > 100 µM | HOP-18 > 100 µM | M19-MEL > 100 µM | RXF 631 99.1 µM | SNB-78 > 100 µM | XF498 > 100 µM

Cc1ccc(NC(=O)CC/C(CC(=O)c2ccc(F)cc2)=N\NC(=O)C(=O)NN)cc1C
inactive: DMS-273 > 100 µM | HOP-18 > 100 µM | M19-MEL > 100 µM | RXF 631 > 100 µM | SNB-78 > 100 µM
